{
  "source": "paper PMC12406258",
  "about": "“Uncovering the Unusual Inhibition Mechanism of a Trypanosome Alternative Oxidase Inhibitor Displaying Broad-Spectrum Activity against African Animal Trypanosomes” (Journal of Medicinal Chemistry, 2025)",
  "key": {"T. b. brucei SUR10": {"system": "T. b. brucei SUR10", "assay": "microbe, parasite or virus in culture", "type": "cell-based", "settings": "Trypanosoma brucei, read-out: SUR10 EC50"}, "T. brucei aqp1-3 null": {"system": "T. brucei aqp1-3 null", "assay": "microbe, parasite or virus in culture", "type": "cell-based, T. b. brucei", "settings": "Trypanosoma brucei, read-out: aqp1-3 null EC50", "procedure": "(§1) Other Trypanosoma species used in this study include T. evansi AntTat 3/3 (Wild-type); and T. equiperdum BoTat 1 (Bordeaux trypanozoon antigenic type 1) P (wild-type). All the trypanosomes were used only as bloodstream trypomastigotes and cultured in the standard Hirumi’s Modified Iscove’s medium #9 (HMI-9), supplemented with 10% heat-inactivated Fetal Bovine Serum (FBS), 14 μL/L β-mercaptoethanol, and 3.0 g sodium hydrogen carbonate per liter of medium (pH 7.4). Trypanosomes were cultured in vented flasks at 37 °C in a 5% CO2 atmosphere.\n(§2) Briefly, this protocol involves preparing a 96-well cell culture plate with a 100 μL serially diluted test compound (200 μM top concentration) in HMI-9 + 10% FBS (24 wells per control drug or test compound, with the 24th well serving as drug-free). This is followed by adjusting the cell density of mid-log-phase trypanosome cultures to the required concentration of 2 × 10^5 cells/mL (2 × 10^4 cells/well). […] All incubations were carried out at 37 °C with 5% CO2. […] EC50 values were calculated using GraphPad Prism 9.0 software via nonlinear regression with an equation for a sigmoidal dose–response curve with variable slope (GraphPad Software Inc., San Diego, CA, USA)."}, "T. brucei B48": {"system": "T. brucei B48", "assay": "microbe, parasite or virus in culture", "type": "cell-based, T. b. brucei", "settings": "Trypanosoma brucei, read-out: T. brucei B48 EC50", "procedure": "as §1, §2"}, "T. brucei wild type s427": {"system": "T. brucei wild type s427", "assay": "Growth curve of T. brucei s427, continuous or 24 h limited exposure", "type": "cell-based", "settings": "2 × and 5 × EC50", "procedure": "The results in Figure , which show the growth curve of T. brucei wild type s427 grown in the continuous presence or after a limited exposure (24 h) to 1, indicate that the growth pattern of cells with long-time exposure was similar to that of cells with limited exposure to 1. The compound seemed to rapidly induce an apparent growth inhibition, after approximately 4h, followed by a steep decline in population from 30 h. […] Thus, the effects of 1 on trypanosomes are irreversible before population decline begins.\n2 Growth curve of T. brucei wild type s427 grown in either the continuous presence of 1 at indicated concentrations (filled symbols) or with the drug washed out with fresh media after 24 h (open symbols; the arrows indicate the time when compound 1 was withdrawn), or untreated (no drug control). The results presented are those of three biological repeats. Error bars represent SD of the biological replicates."}, "[1]": {"biological_target": "T1, recombinant TAO (ΔMTS rTAO) (Trypanosoma brucei brucei, UniProt Q26710)", "T1 construct": "[…]; SUMO (Small Ubiquitin-related Modifier) fusion from the expression system; made in house", "T1 sequence (Q26710 26-329, stated change not applied)": "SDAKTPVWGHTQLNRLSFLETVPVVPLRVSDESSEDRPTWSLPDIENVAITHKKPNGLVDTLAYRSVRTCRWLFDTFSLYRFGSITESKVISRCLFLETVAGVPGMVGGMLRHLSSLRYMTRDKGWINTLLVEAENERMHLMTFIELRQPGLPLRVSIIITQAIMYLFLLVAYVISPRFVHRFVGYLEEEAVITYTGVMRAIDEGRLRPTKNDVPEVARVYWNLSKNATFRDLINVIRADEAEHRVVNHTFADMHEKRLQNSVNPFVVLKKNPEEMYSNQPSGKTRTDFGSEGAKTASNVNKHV", "assay": "TAO inhibitory kinetics (Lineweaver–Burk / Dixon plots)", "type": "biochemical, T. brucei", "procedure": "To determine the type of inhibition with purified TAO, the kinetic assay was carried out in the presence of varying concentrations of 1 and substrate concentrations (Ubiquinol; Q1H2) (0–600 μM), with 250 ng TAO in a 1 mL (0.5 M Tris-HCl buffer, pH 7.3) reaction mix. The results were used to construct the Michaelis–Menten plot, which was then transformed to Lineweaver–Burk plots (Figure A).\nThe slopes of the Lineweaver–Burk primary plot were plotted against the varying concentrations of 1. K i = −(intercept over the X-axis) of the Dixon secondary plot.\nAs previously described, the Ubiquinol oxidase activity measurement was carried out using recombinant TAO lacking the mitochondrial targeting signal (ΔMTS). […] The reaction was carried out in a 1 cm cuvette for 2 min using a V-630 Jasco UV–vis spectrophotometer (Jasco Corporation, Tokyo, Japan). Briefly, the procedure involves preincubating 250 ng of the enzyme for 2 min in a 50 mM Tris-HCl (pH 7.3) buffer containing the detergent octaethylene glycol monododecylether (0.05% (w/v)) in a total reaction volume of 1 mL at 25 °C. […] For the inhibition reaction, 250 ng of the enzyme was preincubated with varying inhibitor concentrations for 2 min using the same buffer before the substrate was added. […] This was achieved using the same protocol but without TAO. […] The residual activities were plotted against the corresponding inhibitor concentration in a GraphPad Prism-9 software to obtain the IC50 value."}, "[2]": {"assay": "Microsomal stability, mouse liver microsomes", "type": "in vitro ADME", "settings": "female, CD1, mouse, pH 7.4, 0.5 mg/mL microsomes, NADPH", "procedure": "Pooled mixed gender human liver microsomes (HLMs) and Pooled CD1 mouse liver microsomes (female) were purchased from Tebubio. The NADPH regenerating system was purchased from Promega. All other reagents and solvents were of special or analytical grade and were commercially available. The assays were performed according to a reported protocol with small changes. […] The reactions were initiated by adding liver microsomes at a final concentration of 0.5 mg/mL in a total volume of 250 μL. […] The supernatants were analyzed with LC/MS for the amount of parent compound remaining, and the CLint and t 1/2 were determined."}, "T. b. brucei STIB795/luc": {"system": "T. b. brucei STIB795/luc", "assay": "In vivo STIB795 mouse model of T. b. brucei infection", "settings": "5 mg/kg/day i.p. for 4 days"}, "[3]": {"system": "Human Embryonic Kidney (HEK) 293-T cells", "assay": "Cytotoxicity assay using Human Embryonic Kidney (HEK) 293 cells", "experimental": "In brief, HEK cells were grown in a culture made of 500 mL Dulbecco’s Modified Eagle’s Medium (DMEM) (Sigma), 50 mL New-born Calf Serum (NBCS) (Gibco), 5 mL L-Glutamax (200 mM, Gibco), and 5 mL Penicillin/ [..."}},
  "note": "Several values for one entry are separate records, joined by “and”; a condition that tells them apart may be missing. Equal entries are not always repeated.",
  "data": [
    {"smiles": "Cc1cc(O)ccc1C(=O)OCCCCCCCCCCCCCC[P+](c1ccccc1)(c1ccccc1)c1ccccn1.[Br-]", "note": "[Compound 1, {14-[(4-Hydroxy-2-methylbenzoyl)-oxy]-tetradecyl}-diphenyl(pyridin-2-yl)-Phosphonium Bromide]", "values": [
      {"measurement": "EC50", "setting": "T. b. brucei SUR10", "result": "3.6 ± 0.9", "unit": "nM"},
      {"measurement": "EC50", "setting": "T. brucei aqp1-3 null", "result": "1.2 ± 0.13", "unit": "nM"},
      {"measurement": "EC50", "setting": "T. brucei B48", "result": "2.5 ± 0.1", "unit": "nM"},
      {"measurement": "Time from which population steeply declines", "setting": "T. brucei wild type s427", "result": "≥ 30", "unit": "h"},
      {"measurement": "Time to apparent growth inhibition", "setting": "T. brucei wild type s427", "result": "approximately 4 h"},
      {"measurement": "Ki", "setting": "[1]", "result": 3.46, "unit": "nM"},
      {"measurement": "Vmax of TAO in the presence of inhibitor", "setting": "[1]; 5 nM inhibitor", "result": 34.7, "unit": "µmol/min/mg"},
      {"measurement": "Vmax of TAO in the presence of inhibitor", "setting": "[1]; 10 nM inhibitor", "result": 21.4, "unit": "µmol/min/mg"},
      {"measurement": "Vmax of TAO in the presence of inhibitor", "setting": "[1]; 15 nM inhibitor", "result": 13.0, "unit": "µmol/min/mg"},
      {"measurement": "Type of inhibition of TAO", "setting": "[1]; Lineweaver–Burk plot", "result": "noncompetitive"},
      {"measurement": "microsomal CLint at 1 μM", "setting": "[2]; read-out: CLint,met in mouse microsomes", "result": "293 ± 19", "unit": "µL/min/mg"},
      {"measurement": "half-life at 1 μM", "setting": "[2]; read-out: t1/2 in mouse microsomes", "result": 4.6, "unit": "min"},
      {"measurement": "In vivo efficacy (extension of lifespan)", "setting": "T. b. brucei STIB795/luc", "result": "no in vivo efficacy"},
      {"measurement": "SI (selectivity index) for T. congolense", "setting": "[3]", "result": 182},
      {"measurement": "HEK EC50 (CC50, cytotoxicity)", "setting": "[3]; HEK 293-T cells, n = 3", "result": "7490 nM and 7490 ± 100 nM"},
      {"measurement": "HEK SI (selectivity index)", "setting": "[3]; SI = CC50 of HEK/EC50 of T. b. b WT (no glycerol)", "result": 2385}
    ]}
  ]
}
